Experiments:
Assay in all cases: relative viability (nuclei count vs DMSO), 5 days (fraction); higher = more cells survive
[1] = tested on: NCI-H1648
Summary of the method: (§1)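 Lung cancer cell lines in 1536-well plates got either a single drug or a fixed anchor-drug dose together with five library-drug doses (not always all listed) in √10 steps, by pin tool, on the day after seeding. Nuclei were counted after 5 days, and relative viability is the treated-to-vehicle ratio of nuclei counts. Values are medians of duplicate plates.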

[2] = tested on: NCI-H1703
Summary of the method: as §1

[3] = tested on: NCI-H596
Summary of the method: as §1

[4] = tested on: A549
Summary of the method: as §1

[5] = tested on: IA-LM
Summary of the method: as §1

Compound	relative viability ([1]; first compound 0.01 µM)	relative viability ([1]; first compound 0.03162 µM)	relative viability ([1]; first compound 0.3162 µM)	relative viability ([2]; first compound 0.03162 µM)	relative viability ([2]; first compound 0.3162 µM)	relative viability ([3]; first compound 0.01 µM)	relative viability ([3]; first compound 0.03162 µM)	relative viability ([3]; first compound 0.3162 µM)	relative viability ([4]; first compound 0.04 µM)	relative viability ([4]; first compound 0.1265 µM)	relative viability ([4]; first compound 0.4 µM)	relative viability ([4]; first compound 4 µM)	relative viability ([1]; first compound 0.04 µM)	relative viability ([1]; first compound 0.1265 µM)	relative viability ([1]; first compound 0.4 µM)	relative viability ([1]; first compound 4 µM)	relative viability ([3]; first compound 0.04 µM)	relative viability ([3]; first compound 0.1265 µM)	relative viability ([3]; first compound 0.4 µM)	relative viability ([3]; first compound 4 µM)	relative viability ([1]; first compound 1.265 µM)	relative viability ([3]; first compound 1.265 µM)	relative viability ([5]; first compound 0.04 µM)	relative viability ([5]; first compound 0.1265 µM)	relative viability ([5]; first compound 0.4 µM)	relative viability ([5]; first compound 4 µM)
CC(C)Oc1cc(Nc2nc(N[C@@H](C)c3ccc(F)cn3)ncc2Cl)n[nH]1 [AZ23] + NC(=O)Nc1cc(-c2cccc(F)c2)sc1C(=O)N[C@H]1CCCNC1 [AZD7762] (partner 0.2 µM)	0.659	0.518	0.762	0.126	0.154	1.02	1.04	1.03																		
C[C@@H]1CN(CC(=O)Nc2ccc3c(c2)Cc2cccc(-c4cc(=O)cc(N5CCOCC5)o4)c2S3)C[C@H](C)O1 + Nc1ncn([C@H]2C[C@H](O)[C@@H](CO)O2)c(=O)n1 [Decitabine] (partner 2 µM)									0.24	0.227	0.254	0.31	0.41	0.515	0.591	0.434	1.01	1.11	1.11	0.798						
Clc1ccc(Nc2nnc(Cc3ccncc3)c3ccccc23)cc1 [Vatalanib] + CC(=O)Nc1cccc(-n2c(=O)n(C3CC3)c(=O)c3c(Nc4ccc(I)cc4F)n(C)c(=O)c(C)c32)c1 [Trametinib] (partner 0.02 µM)													0.407	0.463	0.577	0.578	0.782	0.88	0.76	0.75	0.467	0.751				
C[C@@H]1CN(CC(=O)Nc2ccc3c(c2)Cc2cccc(-c4cc(=O)cc(N5CCOCC5)o4)c2S3)C[C@H](C)O1 + CC(=O)Nc1cccc(-n2c(=O)n(C3CC3)c(=O)c3c(Nc4ccc(I)cc4F)n(C)c(=O)c(C)c32)c1 [Trametinib] (partner 0.02 µM)													0.484	0.435	0.474	0.527	0.771	0.757	0.725	0.768						
C[C@@H]1CN(CC(=O)Nc2ccc3c(c2)Cc2cccc(-c4cc(=O)cc(N5CCOCC5)o4)c2S3)C[C@H](C)O1 + O=C(CCCCCCC(=O)Nc1ccccc1)NO [Vorinostat] (partner 1 µM)													0.505	0.605	0.644	0.528	0.627	0.707	0.642	0.567			0.819	0.933	1.09	0.897
Clc1ccc(Nc2nnc(Cc3ccncc3)c3ccccc23)cc1 [Vatalanib] + Nc1nc2[nH]cc(CCc3ccc(C(=O)N[C@@H](CCC(=O)O)C(=O)O)cc3)c2c(=O)[nH]1 [Pemetrexed] (partner 0.2 µM)													0.67	0.674	0.691	0.718	0.482	0.488	0.524	0.47	0.741	0.514				
COc1cc(N2CCC(C(N)=O)CC2)ccc1Nc1nc(N)c(Cl)c(Nc2ccccc2S(=O)(=O)C(C)C)n1 [HG-5-88-01] + CC(=O)Nc1cccc(-n2c(=O)n(C3CC3)c(=O)c3c(Nc4ccc(I)cc4F)n(C)c(=O)c(C)c32)c1 [Trametinib] (partner 0.02 µM)													0.485	0.459	0.417	0.316	0.901	0.794	0.75	0.778	0.352	0.808				

From the supplement of paper PMC10307832
